# Source: patent US6395308B1, “Purified extract from Harpagophytum procumbens and/or Harpagophytum zeyheri dence” (Finzekberg GmbH & Co. KG, priority 1996, dated 2002)
# Assays:
# [1] = stability in artificial intestinal juice; assay type: in vitro ADME; conditions: both in pure form and in diluted form
# [2] = stability in artificial gastric juice; assay type: in vitro ADME; conditions: both in pure form and in diluted form
smiles,measurement,setting,value
C[C@]1(OC(=O)/C=C/c2ccccc2)C[C@@H](O)[C@]2(O)C=CO[C@@H](O[C@@H]3O[C@H](CO)[C@@H](O)[C@H](O)[C@H]3O)[C@@H]21 [harpagoside],stability in artificial intestinal juice,[1],stable for at least two hours
same,stability in artificial gastric juice,[2],stable for at least two hours
